The record followed here is ChEMBL document CHEMBL1201862, “PubChem BioAssay data set” (2004).

Some test systems named below: SK-MEL-28; HL-60; TK-10; KM12; ACHN; OVCAR-3; RXF 393; MCF7; HCT-15; SK-MEL-5; PC-3; SF-539; OVCAR-4; CAKI-1; SK-OV-3; NCI-H460; UACC-62; IGROV-1; HCC 2998.
Assay in all cases: NCI-60 cell line screen, 48 h

Structures are written as SMILES.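 These data come from cells grown in 96-well plates and exposed to compound for 48 hours at five concentrations. GI50 = concentration required for 50% inhibition of growth.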 The source made the active and inactive calls. No stated cut-off is given here; in the data, active = GI50 up to about 1.1 µM and inactive = higher.

With `CC(Nc1ncc2c(n1)-c1ccccc1OC2)C(=O)O` (stereo not drawn), the GI50 in the assay on SK-MEL-28 was > 100 µM (inactive); in the assay on HL-60, 6.89 µM (inactive); in the assay with TK-10, > 100 µM (inactive); in the assay with KM12, > 100 µM (inactive); with ACHN, > 100 µM (inactive); with OVCAR-3 it was 27.9 µM (inactive). In addition, the GI50 with RXF 393 is > 100 µM (inactive); with MCF7 it was 42.9 µM (inactive); in the assay with HCT-15 it was 85.9 µM; in the assay on SK-MEL-5 it was > 100 µM (inactive); with PC-3 it was > 100 µM (inactive); in the assay with SF-539, > 100 µM (inactive). The GI50 with OVCAR-4 is > 100 µM (inactive); in the assay with CAKI-1, 30.8 µM (inactive); with SK-OV-3, > 100 µM (inactive); in the assay on NCI-H460 it was > 100 µM (inactive); with UACC-62 it was > 100 µM (inactive); in the assay on IGROV-1, 25.2 µM (inactive).

`O=[N+]([O-])c1cccc(S(=O)(=O)N/N=C/c2cc(I)cc([N+](=O)[O-])c2O)c1`: the GI50 is 27.7 µM (inactive) in the assay on SK-MEL-28; 21.3 µM (inactive) with HL-60; 29.2 µM (inactive) with TK-10; 32.4 µM (inactive) with KM12; 31.5 µM (inactive) in the assay on ACHN; 21.4 µM (inactive) with OVCAR-3. Moreover, the GI50 is 26.4 µM (inactive) in the assay on RXF 393; 24.5 µM with HCT-15; 22.7 µM (inactive) in the assay on SK-MEL-5; 23.8 µM (inactive) with SF-539; 27.9 µM (inactive) in the assay on OVCAR-4; 20.3 µM (inactive) with CAKI-1. Also, the GI50 was 26.5 µM (inactive) in the assay on SK-OV-3; 34 µM (inactive) in the assay on NCI-H460; 57 µM (inactive) in the assay on HCC 2998; 22 µM (inactive) in the assay on UACC-62; 36.3 µM (inactive) with IGROV-1.

For `COc1cc(C2S/C(=C/c3ccccc3)C(=O)N2c2cccc(Cl)c2)cc(OC)c1OC` (stereo not drawn), the GI50 in the assay with SK-MEL-28 is 78.3 µM (inactive); in the assay with HL-60 it was 30.9 µM (inactive); with TK-10 it was > 100 µM (inactive); in the assay on KM12, 27.4 µM (inactive); in the assay on ACHN, 30.6 µM (inactive); in the assay with OVCAR-3 it was 30.1 µM (inactive). For the same molecule, the GI50 in the assay on MCF7 was 34 µM (inactive); in the assay on HCT-15 it was 34.8 µM; in the assay on SK-MEL-5, 35.7 µM (inactive); in the assay on PC-3, 51.8 µM (inactive); in the assay with SF-539 it was 31 µM (inactive); in the assay on OVCAR-4, 29.8 µM (inactive). In addition, the GI50 with CAKI-1 was 30.8 µM (inactive); in the assay with SK-OV-3, > 100 µM (inactive); in the assay on NCI-H460, 34.4 µM (inactive); in the assay with HCC 2998, 46.1 µM (inactive); with UACC-62 it was 9.4 µM (inactive); in the assay with IGROV-1, 56.9 µM (inactive).

On to `C[Si](C)(c1ccccc1)C1CC(=O)CC(=O)C1`, for which the GI50 with SK-MEL-28 is > 100 µM (inactive); in the assay with HL-60, 21.3 µM (inactive); with TK-10, > 100 µM (inactive); in the assay with KM12, > 100 µM (inactive); in the assay with ACHN, > 100 µM (inactive); with OVCAR-3, > 100 µM (inactive). In addition, the GI50 is 37.3 µM (inactive) with RXF 393; over 100 µM in the assay on HCT-15; > 100 µM (inactive) with SK-MEL-5; 19.3 µM (inactive) with SF-539; > 100 µM (inactive) in the assay with OVCAR-4; > 100 µM (inactive) in the assay with CAKI-1. Further, the GI50 with SK-OV-3 is > 100 µM (inactive); with NCI-H460, > 100 µM (inactive); with HCC 2998, > 100 µM (inactive); in the assay on UACC-62, > 100 µM (inactive); in the assay with IGROV-1, 22.7 µM (inactive).

`COC(=O)CCC(=O)CC(=O)C(=O)Nc1c(Cl)cc([N+](=O)[O-])cc1Cl`: the GI50 in the assay with SK-MEL-28, with HL-60, in the assay on TK-10, in the assay with KM12, in the assay on ACHN and in the assay on OVCAR-3 was > 100 µM (inactive) each time. For the same molecule, the GI50 is > 100 µM (inactive) in the assay on RXF 393; 55.6 µM in the assay on HCT-15; > 100 µM (inactive) in the assay with SK-MEL-5; > 100 µM (inactive) with SF-539; > 100 µM (inactive) in the assay on OVCAR-4; 61.8 µM (inactive) with CAKI-1. For the same molecule, the GI50 in the assay on SK-OV-3, with NCI-H460, in the assay with HCC 2998, with UACC-62 and with IGROV-1 was > 100 µM (inactive) throughout.

Turning to `COc1c(OC2OC(CO)C(O)C(O)C2O)cc2c(c1OC)-c1ccc(OC)c(=O)cc1[C@@H](NC(C)=O)CC2` (stereo partly drawn), the GI50 with SK-MEL-28 is 59.4 µM (inactive); in the assay with HL-60, > 70.8 µM (inactive); in the assay on TK-10, > 100 µM (inactive); in the assay with KM12, 92.7 µM (inactive); in the assay with ACHN it was > 100 µM (inactive); in the assay on OVCAR-3, 39.5 µM (inactive). In addition, the GI50 is 57.4 µM (inactive) in the assay on RXF 393; over 100 µM in the assay with HCT-15; 35.2 µM (inactive) with SK-MEL-5; 64.9 µM (inactive) with SF-539; > 100 µM (inactive) in the assay with OVCAR-4; > 100 µM (inactive) in the assay on CAKI-1. Also, the GI50 in the assay with SK-OV-3 is > 100 µM (inactive); in the assay on NCI-H460, > 100 µM (inactive); in the assay on HCC 2998 it was > 93.3 µM (inactive); in the assay with UACC-62, 51.5 µM (inactive); in the assay with IGROV-1, 83 µM (inactive).

Regarding `COc1ccc(-c2nc3c(nc2-c2ccc(OC)cc2)N(C)S(=O)(=O)N=C3N)cc1`, the GI50 was 32.1 µM (inactive) with SK-MEL-28; 15.9 µM (inactive) in the assay on HL-60; 28.1 µM (inactive) with TK-10; 22.8 µM (inactive) in the assay with KM12; 19.1 µM (inactive) in the assay on ACHN; 14 µM (inactive) in the assay on OVCAR-3. For the same molecule, the GI50 in the assay with RXF 393 was 10.9 µM (inactive); in the assay with HCT-15, 32.4 µM; with SK-MEL-5 it was 11.6 µM (inactive); in the assay on SF-539 it was 18.3 µM (inactive); in the assay with OVCAR-4, 14.1 µM (inactive); in the assay with CAKI-1, 23.2 µM (inactive). Besides, the GI50 with SK-OV-3 is 24.6 µM (inactive); in the assay with NCI-H460, 22.8 µM (inactive); in the assay on HCC 2998, 35.6 µM (inactive); in the assay with UACC-62, 22.8 µM (inactive); in the assay on IGROV-1 it was 28.1 µM (inactive).

With `O=C1C(N2C(=O)c3ccccc3C2=O)CN1C(COCc1ccccc1)c1ccc(OCc2ccccc2)cc1` (stereo not drawn), the GI50 in the assay on SK-MEL-28, with HL-60, with TK-10, in the assay on KM12, with ACHN and in the assay on OVCAR-3 was > 100 µM (inactive) throughout. Further, the GI50 in the assay with RXF 393 was > 100 µM (inactive); with HCT-15, over 100 µM; in the assay with SK-MEL-5, > 100 µM (inactive); with SF-539 it was > 100 µM (inactive); in the assay on OVCAR-4, > 100 µM (inactive); in the assay with CAKI-1, > 100 µM (inactive). Also, the GI50 with SK-OV-3, in the assay with NCI-H460, in the assay on HCC 2998, in the assay with UACC-62 and in the assay on IGROV-1 was > 100 µM (inactive) in each case.
